# Results taken from patent US20230165865A1, “HETEROARYLDIHYDROPYRIMIDINE DERIVATIVES AND METHODS OF TREATING HEPATITIS B INFECTIONS” (Janssen Pharmaceutica NV, priority 2018, published 2023).
# Key:
# [1] = system: human hepatocytes; experiment: Metabolic stability of test compound in human hepatocyte cell; type: in vitro ADME; conditions: comparing with reference 1 and reference 2
# Experimental: • 1. The cryopreserved human hepatocytes cells were thawed in 37° C. water bath and diluted with pre-warmed incubation medium to a working cell density of 1×10^6 viable cells/mL. • 2. The 198 μL pre-warmed hepatocyte suspensions were spiked with 2 μL of 100 μM compound or reference compound(Verapamil) at a final concentration of 1.0 μM in a 96-well plate. The plate was incubated at 37° C., 900 rpm. All incubations will be performed in singlet. • 3. 25 μL aliquots of well contents were collected at time points of 0, 15, 30, 60, 90 and 120 minutes. The reactions were stopped by the addition of 6-fold volumes of cold acetonitrile with internal standards. • 4. After centrifugation for 25 minutes at 3,220 g. Aliquot of 100 μL of the supernatant was mixed with 100 μL of ultra-pure H2O and then used for LC-MS/MS analysis.
# All calculations were carried out using Microsoft Excel. Peak areas were determined from extracted ion chromatograms. Determine the in vitro half-life (t1/2) of parent compound by regression analysis of the percent parent disappearance vs. time curve.
# The in vitro half-life (in vitro t1/2) is determined from the slope value k:
# Conversion of the in vitro t1/2(in min) into the in vitro intrinsic clearance (in vitro CLint, in μL/min/10^6 cells) is done using the following equation:
# V=incubation volume (0.2 mL);
# N=number of hepatocytes per well (0.2×10^6 cells).
# Conversion of the in vitro t1/2(in min) into the scale-up intrinsic clearance (CLint(liver), in mL/min/kg) was done using the following equation:
# CLint(liver)=kV/N×scaling factor
# [2] = system: CYP3A4; experiment: In vitro assessment of CYP3A4 induction in cryopreserved human hepatocytes (mRNA level); type: in vitro ADME
# Experimental: Preparation and Plating of Human Hepatocytes • 1. The cryopreserved human hepatocytes were thawed in 37° C. water bath and diluted by plating medium to a seeding density of 0.55×10^6 cells/mL. • 2. Transfer 100 μL to each well of collagen I coated 96-well plate. Place plate(s) in incubator and incubate at 37° C. for 4-6 hours. • 3. After incubation, observe cell morphology, agitate plate(s) to loosen debris, and replace medium. Place plate in incubator and incubate for 18 hours. Incubation with Test Compound(s) • 1. Prepare dilute test compound and positive control inducers with 37° C. prepared incubation medium to respective working concentrations (Table 11). Final concentration of DMSO in the treatment group will be 0.1%. Prepare 25 mM chlorpromazine in DMSO and dilute 1000-fold with incubation medium as a cytotoxicity control. • 2. Remove the Hepatocyte plate from the incubator. Observe cell morphology. Replace the medium in the appropriate wells with 125 μL of the toxicity controls, DMSO controls, inducers, or test article solutions, each in triplicate. • 3. After 24 hours and 48 hours, remove the Hepatocyte plate from the incubator and observe cell morphology. Renew the medium with test articles that freshly diluted from DMSO stocks. Return plate to the incubator. 4. mRNA Preparation and RT-PCR • 1. mRNA was prepared and measured using the Cells-to-Ct kit. Add DNase to Lysis solution. • 2. 15 μL of sample lysate was added to 35 µL of Reverse Transcription Master Mix (containing 2×RT Buffer, 20×RT Enzyme Mix and Nuclease-free Water) for a final 50 μL reaction volume. • 3. Separate PCR cocktails were prepared for CYP3A4; containing the CYP specific probe set and that of ACTB as the endogenous control gene. […] Reactions were analyzed on an Applied Biosystems Real Time PCR system (AB 7500). […] For mRNA level determination, the mRNA content in each well is expressed as 2^Ct(ACTB)-Ct(CYP). Fold of induction=mRNA(induced)/mRNA(vehicle) 3) The percent adjusted positive control is determined by: % of positive control=[(fold induction of test article)/(fold induction of positive control)]*100
# [3] = system: cryopreserved human hepatocytes; experiment: Cell viability assessment in CYP induction study (CellTiter-Fluor); type: cell-based; conditions: donor 1, 10 μM, 72 hours
# Experimental: Preparation and Plating of Human Hepatocytes • 1. The cryopreserved human hepatocytes were thawed in 37° C. water bath and diluted by plating medium to a seeding density of 0.55×10^6 cells/mL. • 2. Transfer 100 μL to each well of collagen I coated 96-well plate. Place plate(s) in incubator and incubate at 37° C. for 4-6 hours. • 3. After incubation, observe cell morphology, agitate plate(s) to loosen debris, and replace medium. Place plate in incubator and incubate for 18 hours.
# Incubation with Test Compound(s) • 1. Prepare dilute test compound and positive control inducers with 37° C. prepared incubation medium to respective working concentrations (Table 11). Final concentration of DMSO in the treatment group will be 0.1%. Prepare 25 mM chlorpromazine in DMSO and dilute 1000-fold with incubation medium as a cytotoxicity control.
# • 2. Remove the Hepatocyte plate from the incubator. Observe cell morphology. Replace the medium in the appropriate wells with 125 μL of the toxicity controls, DMSO controls, inducers, or test article solutions, each in triplicate. • 3. After 24 hours and 48 hours, remove the Hepatocyte plate from the incubator and observe cell morphology. Renew the medium with test articles that freshly diluted from DMSO stocks. […]
# After 72 hours of treatment, warm the incubation medium to 37° C. […] Cell viability was assessed by CellTiter-Fluor™ Cell Viability Assay kit. […]
"mRNA Percentage of positive control at 10 uM ([2]; CYP3A4 mRNA, donor 1, 10 μM, positive control rifampicin) [%]","mRNA Fold induction (Mean ± SD) ([2]; CYP3A4 mRNA, donor 1, 10 μM, vs vehicle)",SMILES,"metabolic stability in human hepatocyte cells, in words [1]","CYP induction effect, in words ([2]; CYP3A4, comparing with reference 2)",Cell viability [3] [%]
,,"CCOC(=O)C1=C(CN2CCN3C(=S)N(CC(C)(C)C(=O)O)CC3C2)NC(c2nccs2)=N[C@H]1c1cccc(F)c1C (single isomer, unassigned) [Compound 1A]",improved metabolic stability,no CYP induction effect,95
20.50,5.05 ± 0.61,"CCOC(=O)C1=C(CN2CCN3C(=O)N(CC(C)(C)C(=O)O)C[C@@H]3C2)NC(c2nccs2)=N[C@H]1c1cccc(F)c1C [Reference 2, reference compound]",,,117
